{
  "source": "patent US20070116781A1",
  "about": "“Hydrogen Cyanamide Pesticide Formulations” (priority 2005, published 2007)",
  "key": {"crabgrass": {"system": "crabgrass", "assay": "Herbicidal activity, cyanamide and citric acid, pre-emergence, covered pots", "format": "in vivo, Digitaria sanguinalis", "conditions": "C6H8O7 150 mg/kg soil", "procedure": "(§1) The weeds used in these tests were grown from a standard weed seed pack of common annual and perennial weeds representing an extreme weed situation. The weeds included crabgrass (Digitaria sanguinalis), yellow nutsedge (Cyperus esculentus), […] (Ipomoea spp.), pigweed (Amaranthus spp.), and other annual weeds. Observations of the effects on the weed population as a whole were made, and individual observations were made for crabgrass, yellow nutsedge, sicklepod, morningglory, and pigweed. Stock solutions of hydrogen cyanamide at 1.25% by weight and citric acid at 5.0% by weight, both in water, were prepared, the hydrogen cyanamide from a phosphate-buffered 50% aqueous solution. […] Data analyses were performed in the same manner as Example 1. The results expressed in weeds per pot are listed in Table XIV for all weeds, Table XV for crabgrass, Table XVI for yellow nutsedge, Table XVII for sicklepod, Table XVIII for morningglory, and Table XIX for pigweed, all at various application rates for hydrogen cyanamide, with and without citric acid."}, "weed combination": {"system": "weed combination", "assay": "Herbicidal activity of citric acid alone, pre-emergence, covered pots", "format": "in vivo", "procedure": "The weeds used in these tests were the same as those used in Example 4, and observations were made of the effects on individual weeds as well as the weed population as a whole.\nA stock solution of citric acid was made in the manner described in Example 4, and all other test parameters were likewise the same as in Example 4. Weed counts were taken from the various pots at intervals of 7, 12, and 28 days after application of the citric acid, and data analyses were performed in the same manner as Example 1."}, "sicklepod": {"system": "sicklepod", "assay": "Herbicidal activity, cyanamide and citric acid, pre-emergence, covered pots", "format": "in vivo, Senna obtusifolia", "conditions": "C6H8O7 150 mg/kg soil", "procedure": "as §1"}, "morningglory": {"system": "morningglory", "assay": "Herbicidal activity, cyanamide and citric acid, pre-emergence, covered pots", "format": "in vivo, Ipomoea spp.", "conditions": "C6H8O7 150 mg/kg soil", "procedure": "as §1"}, "combined weed species": {"system": "combined weed species", "assay": "Herbicidal activity, cyanamide and citric acid, pre-emergence, covered pots", "format": "in vivo", "conditions": "C6H8O7 150 mg/kg soil", "procedure": "as §1"}, "yellow nutsedge": {"system": "yellow nutsedge", "assay": "Herbicidal activity, cyanamide and citric acid, pre-emergence, covered pots", "format": "in vivo, Cyperus esculentus", "conditions": "C6H8O7 150 mg/kg soil", "procedure": "as §1"}},
  "data": [
    {"smiles": "O=C(O)CC(O)(CC(=O)O)C(=O)O", "note": "[C6H8O7, 2-hydroxy-1,2,3-propanetricarboxylic acid]", "values": [
      {"measurement": "Weeds Per Pot: Crabgrass", "setting": "crabgrass; 9 d after treatment", "value": 4.6},
      {"measurement": "Weeds Per Pot: Crabgrass", "setting": "crabgrass; 13 d after treatment", "value": 8.6},
      {"measurement": "Weeds Per Pot: Crabgrass", "setting": "crabgrass; 19 d after treatment", "value": 9.3},
      {"measurement": "Weeds Per Pot: Crabgrass", "setting": "crabgrass; 26 d after treatment", "value": 8.1},
      {"measurement": "Weeds Per Pot (weed combination)", "setting": "weed combination; 7 d after treatment, citric acid 50 mg/kg soil", "value": 16.6},
      {"measurement": "Weeds Per Pot (weed combination)", "setting": "weed combination; 7 d after treatment, citric acid 100 mg/kg soil", "value": 11.1},
      {"measurement": "Weeds Per Pot (weed combination)", "setting": "weed combination; 7 d after treatment, citric acid 150 mg/kg soil", "value": 14.0},
      {"measurement": "Weeds Per Pot (weed combination)", "setting": "weed combination; 7 d after treatment, citric acid 200 mg/kg soil", "value": 12.2},
      {"measurement": "Weeds Per Pot (weed combination)", "setting": "weed combination; 7 d after treatment, citric acid 250 mg/kg soil", "value": 11.5},
      {"measurement": "Weeds Per Pot (weed combination)", "setting": "weed combination; 12 d after treatment, citric acid 50 mg/kg soil", "value": 29.8},
      {"measurement": "Weeds Per Pot (weed combination)", "setting": "weed combination; 12 d after treatment, citric acid 100 mg/kg soil", "value": 25.5},
      {"measurement": "Weeds Per Pot (weed combination)", "setting": "weed combination; 12 d after treatment, citric acid 200 mg/kg soil", "value": 20.6},
      {"measurement": "Weeds Per Pot (weed combination)", "setting": "weed combination; 28 d after treatment, citric acid 50 mg/kg soil", "value": 28.0},
      {"measurement": "Herbicidal activity of citric acid", "setting": "weed combination; pre-emergence, covered pots", "value": "negligible except at extremely high application rates"},
      {"measurement": "Weeds Per Pot: Sicklepod", "setting": "sicklepod; 13 d after treatment", "value": 4.6},
      {"measurement": "Weeds Per Pot: Sicklepod", "setting": "sicklepod; 19 d after treatment", "value": 5.6},
      {"measurement": "Weeds Per Pot: Sicklepod", "setting": "sicklepod; 26 d after treatment", "value": 5.3},
      {"measurement": "Weeds Per Pot: Morningglory", "setting": "morningglory; 13 d after treatment", "value": 1.1},
      {"measurement": "Weeds Per Pot: Morningglory", "setting": "morningglory; 19 d after treatment", "value": 0.9},
      {"measurement": "Weeds Per Pot: Morningglory", "setting": "morningglory; 26 d after treatment", "value": 5.3},
      {"measurement": "Weeds Per Pot (combined weed species)", "setting": "combined weed species; 9 d after treatment", "value": 10.6},
      {"measurement": "Weeds Per Pot (combined weed species)", "setting": "combined weed species; 13 d after treatment", "value": 15.0},
      {"measurement": "Weeds Per Pot (combined weed species)", "setting": "combined weed species; 19 d after treatment", "value": 16.5},
      {"measurement": "Weeds Per Pot (combined weed species)", "setting": "combined weed species; 26 d after treatment", "value": 16.0},
      {"measurement": "Weeds Per Pot: Yellow Nutsedge", "setting": "yellow nutsedge; 13 d after treatment", "value": 0.7},
      {"measurement": "Weeds Per Pot: Yellow Nutsedge", "setting": "yellow nutsedge; 19 d after treatment", "value": 0.9},
      {"measurement": "Weeds Per Pot: Yellow Nutsedge", "setting": "yellow nutsedge; 26 d after treatment", "value": 0.9}
    ]}
  ]
}
